Test results from the NIST ThermoML archive (doi:10.1016/j.jct.2015.03.019).
Where “and” joins values, the source holds several entries; their conditions need not be identical. Equal entries are not always repeated.

Assay: molar heat capacity at constant pressure
Conditions: 101.33 kPa, Small (less than 1 g) adiabatic calorimetry

CC(C)(C)c1ccc(Oc2ccccc2)cc1 [4-tert-butylphenyl phenyl ether]
molar heat capacity at constant pressure
Conditions | Crystal | Liquid
120 K | 144.42 J/K/mol | –
120.73 K | 145 J/K/mol | –
121.96 K | 146.09 J/K/mol | –
123.18 K | 147.08 J/K/mol | –
124.42 K | 148.25 J/K/mol | –
125.65 K | 149.33 J/K/mol | –
126.9 K | 150.41 J/K/mol | –
128.13 K | 151.57 J/K/mol | –
129.37 K | 152.57 J/K/mol | –
130 K | 153.32 J/K/mol | –
130.6 K | 153.82 J/K/mol | –
131.84 K | 154.9 J/K/mol | –
133.08 K | 155.9 J/K/mol | –
134.32 K | 157.23 J/K/mol | –
135.56 K | 158.22 J/K/mol | –
136.81 K | 159.31 J/K/mol | –
138.05 K | 160.3 J/K/mol | –
139.3 K | 161.47 J/K/mol | –
140 K | 161.97 J/K/mol | –
140.55 K | 162.46 J/K/mol | –
141.8 K | 163.38 J/K/mol | –
143.04 K | 164.54 J/K/mol | –
144.3 K | 165.79 J/K/mol | –
145.55 K | 166.71 J/K/mol | –
146.83 K | 167.95 J/K/mol | –
148.09 K | 169.12 J/K/mol | –
149.35 K | 169.95 J/K/mol | –
150 K | 170.61 J/K/mol | –
150.61 K | 171.11 J/K/mol | –
151.87 K | 172.28 J/K/mol | –
153.13 K | 173.44 J/K/mol | –
154.39 K | 174.44 J/K/mol | –
155.66 K | 175.27 J/K/mol | –
156.93 K | 176.43 J/K/mol | –
158.2 K | 177.6 J/K/mol | –
159.47 K | 178.43 J/K/mol | –
160 K | 179.01 J/K/mol | –
160.74 K | 179.34 J/K/mol | –
162.02 K | 180.67 J/K/mol | –
163.29 K | 181.92 J/K/mol | –
164.57 K | 182.92 J/K/mol | –
165.84 K | 184.08 J/K/mol | –
167.17 K | 185.33 J/K/mol | –
168.45 K | 186.16 J/K/mol | –
169.73 K | 187.16 J/K/mol | –
170 K | 187.41 J/K/mol | –
171.02 K | 188.24 J/K/mol | –
172.31 K | 189.4 J/K/mol | –
173.6 K | 190.48 J/K/mol | –
174.89 K | 191.57 J/K/mol | –
176.18 K | 192.9 J/K/mol | –
177.47 K | 193.64 J/K/mol | –
178.77 K | 194.81 J/K/mol | –
180 K | 195.72 J/K/mol | –
180.07 K | 195.97 J/K/mol | –
181.37 K | 197.05 J/K/mol | –
183.98 K | 199.21 J/K/mol | –
185.29 K | 200.46 J/K/mol | –
186.59 K | 201.63 J/K/mol | –
187.96 K | 202.71 J/K/mol | –
189.28 K | 203.54 J/K/mol | –
190 K | 204.12 J/K/mol | –
190.59 K | 204.62 J/K/mol | –
191.9 K | 205.95 J/K/mol | –
193.22 K | 207.03 J/K/mol | –
194.54 K | 208.28 J/K/mol | –
195.86 K | 209.36 J/K/mol | –
197.19 K | 210.52 J/K/mol | –
198.51 K | 211.69 J/K/mol | –
199.84 K | 212.52 J/K/mol | –
200 K | 212.52 J/K/mol | –
202.54 K | 214.35 J/K/mol | –
203.91 K | 215.51 J/K/mol | –
205.26 K | 216.84 J/K/mol | –
206.62 K | 217.92 J/K/mol | –
209.43 K | 220.42 J/K/mol | –
210 K | 221.08 J/K/mol | –
212.14 K | 222.5 J/K/mol | –
213.5 K | 223.66 J/K/mol | –
214.85 K | 224.82 J/K/mol | –
216.21 K | 225.99 J/K/mol | –
218.93 K | 228.56 J/K/mol | –
220 K | 229.81 J/K/mol | –
220.29 K | 230.06 J/K/mol | –
221.64 K | 231.06 J/K/mol | –
222.99 K | 232.06 J/K/mol | –
224.34 K | 233.39 J/K/mol | –
225.69 K | 234.72 J/K/mol | –
227.04 K | 235.72 J/K/mol | –
228.4 K | 237.05 J/K/mol | –
229.74 K | 238.29 J/K/mol | –
230 K | 238.71 J/K/mol | –
231.18 K | 240.12 J/K/mol | –
236.59 K | 245.11 J/K/mol | –
237.93 K | 246.03 J/K/mol | –
239.28 K | 247.27 J/K/mol | –
240 K | 247.77 J/K/mol | –
240.62 K | 248.44 J/K/mol | –
241.97 K | 249.68 J/K/mol | –
243.31 K | 250.76 J/K/mol | –
244.65 K | 252.18 J/K/mol | –
248.66 K | 256.25 J/K/mol | –
250 K | 257.67 J/K/mol and 257.5 J/K/mol | –
251.33 K | 258.91 J/K/mol | –
252.75 K | 260.49 J/K/mol | –
254.09 K | 261.41 J/K/mol | –
255.42 K | 262.82 J/K/mol | –
256.75 K | 264.07 J/K/mol | –
260 K | 267.48 J/K/mol | –
260.74 K | 268.39 J/K/mol | –
262.06 K | 269.56 J/K/mol | –
263.38 K | 270.8 J/K/mol | –
264.71 K | 272.05 J/K/mol | –
266.03 K | 273.38 J/K/mol | –
267.35 K | 274.54 J/K/mol | –
268.67 K | 275.96 J/K/mol | –
269.98 K | 276.87 J/K/mol | –
270 K | 277.2 J/K/mol | –
271.3 K | 278.45 J/K/mol | –
272.62 K | 279.7 J/K/mol | –
276.62 K | 283.69 J/K/mol | –
277.92 K | 285.02 J/K/mol | –
279.22 K | 286.27 J/K/mol | –
280 K | 287.1 J/K/mol | –
280.53 K | 287.51 J/K/mol | –
281.83 K | 289.01 J/K/mol | –
283.13 K | 290.09 J/K/mol | –
284.43 K | 291.09 J/K/mol | –
288.3 K | 295.16 J/K/mol | –
289.59 K | 296.49 J/K/mol | –
290 K | 296.41 J/K/mol | –
290.87 K | 297.33 J/K/mol | –
292.15 K | 298.24 J/K/mol | –
293.43 K | 298.91 J/K/mol | –
294.71 K | 299.82 J/K/mol | –
298.15 K | 302.98 J/K/mol | –
299.77 K | 304.06 J/K/mol | –
300 K | 304.48 J/K/mol | –
301.26 K | 305.47 J/K/mol | –
302.92 K | 307.05 J/K/mol | –
304.58 K | 308.88 J/K/mol | –
306.25 K | 310.3 J/K/mol | –
309.6 K | 312.87 J/K/mol | –
310 K | 313.21 J/K/mol | –
311.29 K | 315.62 J/K/mol | –
314.7 K | 320.94 J/K/mol | –
316.41 K | 322.19 J/K/mol | –
318.13 K | 325.68 J/K/mol | –
319.86 K | 330.17 J/K/mol | –
320 K | 321.69 J/K/mol | –
321.61 K | 331 J/K/mol | –
327.84 K | 328.26 J/K/mol | 384.38 J/K/mol
330 K | – | 386.29 J/K/mol
334.3 K | – | 391.36 J/K/mol
340 K | – | 394.94 J/K/mol
340.65 K | – | 394.52 J/K/mol
347.01 K | – | 398.93 J/K/mol
350 K | – | 403.25 J/K/mol
351.17 K | – | 405 J/K/mol
353.12 K | – | 407.24 J/K/mol
355.08 K | – | 408.24 J/K/mol
357.06 K | – | 409.82 J/K/mol
359.07 K | – | 410.65 J/K/mol
360 K | – | 411.57 J/K/mol
361.08 K | – | 411.57 J/K/mol
363.12 K | – | 412.65 J/K/mol
365.18 K | – | 413.4 J/K/mol
367.25 K | – | 414.06 J/K/mol
369.35 K | – | 414.89 J/K/mol
370 K | – | 414.89 J/K/mol
371.48 K | – | 415.81 J/K/mol
